Test results as given in patent US10757937B2, “Sulfonamides that activate ABA receptors” (The Regents of the University of California, priority 2014, dated 2020).

Columns and labels:
Assay in all cases: receptor-mediated PP2C (HAB1) inhibition in vitro assay
Assay type in all cases: biochemical
PYL8 = target: T1, PYL8 (Arabidopsis thaliana, UniProt Q9FGM1); settings: for IC50: Table VII, read-out: PP2C Dose Curves PYL8 (IC50); for remaining activity at 25 µM: compound at 25 μM, control without agonist = 100%
T1 construct: 6X-His; made in house; host or cells: E. coli BL21[DE3]pLysS
T1 sequence (Q9FGM1 1-188): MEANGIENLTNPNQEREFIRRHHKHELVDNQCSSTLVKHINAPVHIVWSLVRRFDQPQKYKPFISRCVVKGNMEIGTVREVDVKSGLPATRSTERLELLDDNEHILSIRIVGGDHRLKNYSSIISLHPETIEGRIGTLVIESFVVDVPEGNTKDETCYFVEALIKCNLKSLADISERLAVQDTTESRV
T1 sequence (Q9CAJ0 23-511 partner): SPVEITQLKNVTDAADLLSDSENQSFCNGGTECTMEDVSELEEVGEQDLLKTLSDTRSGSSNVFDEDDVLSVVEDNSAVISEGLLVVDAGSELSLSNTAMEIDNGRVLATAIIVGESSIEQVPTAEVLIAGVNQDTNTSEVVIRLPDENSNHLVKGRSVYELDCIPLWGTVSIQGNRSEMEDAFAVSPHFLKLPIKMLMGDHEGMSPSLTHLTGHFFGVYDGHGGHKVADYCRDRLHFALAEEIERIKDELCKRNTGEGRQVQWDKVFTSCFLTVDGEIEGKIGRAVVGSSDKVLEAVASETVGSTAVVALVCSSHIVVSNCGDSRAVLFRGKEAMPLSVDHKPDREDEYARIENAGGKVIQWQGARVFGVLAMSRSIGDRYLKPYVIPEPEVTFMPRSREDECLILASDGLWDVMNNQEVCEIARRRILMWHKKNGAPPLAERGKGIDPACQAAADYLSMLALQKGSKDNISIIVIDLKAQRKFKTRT
How it was run: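 Fluorogenic readout: 4-methylumbelliferyl-phosphate hydrolysis by 50 nM GST-HAB1 plus 2:1 His-receptor; Tris-OAc pH 7.9, NaCl, 1 mM MnCl2, β-ME. Compounds at 25 μM or 50 uM single dose; IC50 from dose curves for selected compounds.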

PYL6 = target: T2, PYL6 (Arabidopsis thaliana, UniProt Q8S8E3); settings: for IC50: Table VII, read-out: PP2C Dose Curves PYL6 (IC50)
T2 construct: 6X-His; made in house; host or cells: E. coli BL21[DE3]pLysS
T2 sequence (Q8S8E3 1-215): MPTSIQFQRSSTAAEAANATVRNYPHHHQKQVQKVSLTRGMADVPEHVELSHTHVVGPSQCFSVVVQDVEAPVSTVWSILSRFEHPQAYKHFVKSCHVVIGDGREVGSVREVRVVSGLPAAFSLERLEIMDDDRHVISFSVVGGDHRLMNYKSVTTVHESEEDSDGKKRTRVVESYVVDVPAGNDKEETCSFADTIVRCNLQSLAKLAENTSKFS
T2 sequence (Q9CAJ0 23-511 partner): T1 sequence (Q9CAJ0 23-511 partner)
How it was run: (§1)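 His-tagged receptors (MBP fusion for PYL11) at 2:1 ratio to 50 nM GST-HAB1 in 100 mM Tris-OAc pH 7.9, 100 mM NaCl, 1 mM MnCl2; 4-methylumbelliferyl-phosphate fluorogenic substrate. Compounds at 50 uM (ABA 10 uM); IC50 from dose curves for selected compounds.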

PYL10 = target: T3, PYL10 (Arabidopsis thaliana, UniProt Q8H1R0); settings: for IC50: Table VII, read-out: PP2C Dose Curves PYL10 (IC50)
T3 construct: 6X-His; made in house; host or cells: E. coli BL21[DE3]pLysS
T3 sequence (Q8H1R0 1-183): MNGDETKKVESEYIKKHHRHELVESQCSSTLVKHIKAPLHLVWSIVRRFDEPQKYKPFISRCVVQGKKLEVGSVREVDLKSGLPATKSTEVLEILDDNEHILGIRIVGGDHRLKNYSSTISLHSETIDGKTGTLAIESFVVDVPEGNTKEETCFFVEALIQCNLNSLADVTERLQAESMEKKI
T3 sequence (Q9CAJ0 23-511 partner): T1 sequence (Q9CAJ0 23-511 partner)
How it was run: as §1

PYL4 = target: T4, PYL4 (Arabidopsis thaliana, UniProt O80920); settings: for remaining activity at 25 µM: compound at 25 μM, control without agonist = 100%; for IC50: Table VII, read-out: PP2C Dose Curves PYL4 (IC50)
T4 construct: 6X-His; made in house; host or cells: E. coli BL21[DE3]pLysS
T4 sequence (O80920 1-207): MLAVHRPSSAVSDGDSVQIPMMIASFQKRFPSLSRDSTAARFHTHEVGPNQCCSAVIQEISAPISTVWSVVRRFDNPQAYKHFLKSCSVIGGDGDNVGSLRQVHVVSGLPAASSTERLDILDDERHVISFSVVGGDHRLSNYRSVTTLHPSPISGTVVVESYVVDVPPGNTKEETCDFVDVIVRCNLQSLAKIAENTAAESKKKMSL
T4 sequence (Q9CAJ0 23-511 partner): T1 sequence (Q9CAJ0 23-511 partner)
How it was run: (§2)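 Compounds, tested at 25 μM or 50 uM with ABA at 10 uM, were incubated with recombinant receptor and 50 nM GST-HAB1 (2:1 ratio) in MnCl2-containing Tris-OAc buffer, pH 7.9. Phosphatase activity was followed by 4-methylumbelliferyl-phosphate fluorescence.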

PYL11 = target: T5, PYL11 (Arabidopsis thaliana, UniProt Q9FJ50); settings: for IC50: Table VII, read-out: PP2C Dose Curves PYL11 (IC50)
T5 construct: made in house; host or cells: E. coli BL21[DE3]pLysS
T5 sequence (Q9FJ50 1-161): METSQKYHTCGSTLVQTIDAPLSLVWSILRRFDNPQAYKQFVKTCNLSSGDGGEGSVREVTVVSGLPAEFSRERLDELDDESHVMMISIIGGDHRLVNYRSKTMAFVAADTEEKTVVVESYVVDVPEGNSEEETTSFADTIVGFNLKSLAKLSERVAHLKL
T5 sequence (Q9CAJ0 23-511 partner): T1 sequence (Q9CAJ0 23-511 partner)
How it was run: as §2

PYL5 = target: T6, PYL5 (Arabidopsis thaliana, UniProt Q9FLB1); settings: for IC50: Table VII, read-out: PP2C Dose Curves PYL5 (IC50); for remaining activity at 25 µM: compound at 25 μM, control without agonist = 100%; for PYL5 agonist potency and selectivity: compounds with cyclopropyl rings at alpha carbon
T6 construct: 6X-His; made in house; host or cells: E. coli BL21[DE3]pLysS
T6 sequence (Q9FLB1 1-203): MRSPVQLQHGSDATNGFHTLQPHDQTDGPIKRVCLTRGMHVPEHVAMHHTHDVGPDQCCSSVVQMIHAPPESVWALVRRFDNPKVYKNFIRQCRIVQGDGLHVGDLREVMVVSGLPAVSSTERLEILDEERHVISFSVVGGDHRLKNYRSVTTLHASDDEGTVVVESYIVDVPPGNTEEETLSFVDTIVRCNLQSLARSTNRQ
T6 sequence (Q9CAJ0 23-511 partner): T1 sequence (Q9CAJ0 23-511 partner)
How it was run: as §2

Row | SMILES | PP2C Activity PYL8 (PYL8; ABA (10 μM)) | PP2C Activity PYL6 (PYL6; ABA (10 μM)) | PP2C Activity PYL10 (PYL10; ABA (10 μM)) | PP2C Activity PYL4 (PYL4; ABA (10 μM)) | PP2C Activity PYL11 (PYL11; ABA (10 μM)) | PP2C Activity PYL5 (PYL5; ABA (10 μM)) | IC50 (PYL8) | remaining activity at 25 µM (PYL8) | IC50 (PYL6) | remaining activity at 25 µM (PYL4) | IC50 (PYL11) | IC50 (PYL5) | remaining activity at 25 µM (PYL5) | IC50 (PYL10) | IC50 (PYL4) | PYL5 agonist potency and selectivity (PYL5)
1 | CC1=CC(=O)CC(C)(C)[C@@]1(O)/C=C/C(C)=C\C(=O)O [ABA, Abscisic acid, reference compound] | 7.0 | 10.9 | 13.8 | 10.2 | 5.7 | 4.9 | – | – | – | – | – | – | – | – | – | –
2 | CC(C)(C(=O)NS(=O)(=O)Cc1ccc([N+](=O)[O-])cc1)c1ccccc1 [Compound 3] | – | – | – | – | – | – | 8.58 µM | 35% | 45.5 µM | 90% | 1.94 µM | 29.5 µM | 47% | – | – | –
3 | CC(C)(C(=O)NS(=O)(=O)Cc1ccc(C#N)cc1)c1ccc(Cl)cc1 [Compound 6] | – | – | – | – | – | – | 26.3 µM | 52% | > 50 µM | 90% | 4.16 µM | > 50 µM | 21% | > 50 µM | – | –
4 | CC(C)(C(=O)NS(=O)(=O)Cc1ccc(C#N)cc1)c1ccc(Cl)c(Cl)c1 [Compound 7] | – | – | – | – | – | – | 40 µM | 54% | > 50 µM | 90% | 13.9 µM | 10.7 µM | 33% | – | – | –
5 | CC(C)(C(=O)NS(=O)(=O)Cc1ccc(C#N)cc1)c1ccc(F)cc1 [Compound 13] | – | – | – | – | – | – | 4.45 µM | 32% | 18.9 µM | 98% | 2.48 µM | 11.1 µM | 37% | > 50 µM | – | –
6 | CC(C)(C(=O)NS(=O)(=O)Cc1ccc(C#N)cc1)c1cccc(C#N)c1 [Compound 18] | – | – | – | – | – | – | 18.6 µM | 52% | 12.6 µM | 91% | 14.9 µM | 1.95 µM | 12% | 31.5 µM | > 50 µM | –
7 | CCC(CC)(C(=O)NS(=O)(=O)Cc1ccc([N+](=O)[O-])cc1)c1ccccc1 [Compound 19] | – | – | – | – | – | – | 9.65 µM | 36% | 57.1 µM | 86% | 2.44 µM | > 50 µM | 85% | 50.8 µM | > 50 µM | –
8 | CC(C)(C(=O)NS(=O)(=O)Cc1ccc(C#N)cc1)c1ccccc1 [Compound 23] | – | – | – | – | – | – | 48.9 µM | – | > 50 µM | – | 7.84 µM | 39.6 µM | – | > 50 µM | – | –
9 | N#Cc1ccc(CS(=O)(=O)NC(=O)C2(c3ccc(F)cc3)CCCC2)cc1 [Compound 24] | – | – | – | – | – | – | 6.38 µM | 21% | > 50 µM | 92% | 4.09 µM | > 50 µM | 99% | 14.8 µM | > 50 µM | –
10 | N#Cc1ccc(CS(=O)(=O)NC(=O)C2(c3ccccc3F)CCCC2)cc1 [Compound 25] | – | – | – | – | – | – | 12.6 µM | 37% | – | 94% | 12.7 µM | – | 102% | > 50 µM | – | –
11 | N#Cc1ccc(CS(=O)(=O)NC(=O)C2(c3cccc(F)c3)CCCC2)cc1 [Compound 26] | – | – | – | – | – | – | 11.5 µM | 33% | – | 99% | 7.52 µM | – | 105% | 41.6 µM | – | –
12 | N#Cc1ccc(CS(=O)(=O)NC(=O)C2(c3ccccc3)CCC2)cc1 [Compound 29] | – | – | – | – | – | – | 3.36 µM | 28% | > 50 µM | 96% | 1.77 µM | > 50 µM | 90% | > 50 µM | – | –
13 | N#Cc1ccc(CS(=O)(=O)NC(=O)C2(c3ccc(Br)cc3)CC2)cc1 [Compound 30] | – | – | – | – | – | – | > 50 µM | 82% | > 50 µM | 90% | 4.63 µM | 0.86 µM | 12% | – | – | potent and relatively selective PYL5 agonists
14 | N#Cc1ccc(CS(=O)(=O)NC(=O)C2(c3ccc(F)cc3)CCC2)cc1 [Compound 32] | – | – | – | – | – | – | 3.23 µM | 24% | > 50 µM | 92% | 2.25 µM | > 50 µM | 74% | > 50 µM | – | –
15 | N#Cc1ccc(CS(=O)(=O)NC(=O)C2(c3ccc(F)cc3)CC2)cc1 [Compound 35] | – | – | – | – | – | – | > 50 µM | 62% | 34.7 µM | 94% | 3.29 µM | 3.91 µM | 20% | > 50 µM | – | –
16 | COc1ccccc1C1(C(=O)NS(=O)(=O)Cc2ccc(C#N)cc2)CCC1 [Compound 42] | – | – | – | – | – | – | 52.4 µM | 65% | > 50 µM | 88% | 14.7 µM | 29.4 µM | 45% | 17.9 µM | – | –
17 | Cc1cccc(C2(C(=O)NS(=O)(=O)Cc3ccc(C#N)cc3)CCCC2)c1 [Compound 43] | – | – | – | – | – | – | 22.7 µM | 41% | – | 95% | > 50 µM | – | 95% | > 50 µM | – | –
18 | Cc1ccccc1C1(C(=O)NS(=O)(=O)Cc2ccc(C#N)cc2)CC1 [Compound 44] | – | – | – | – | – | – | 49.5 µM | 63% | 12.2 µM | 89% | 13.3 µM | 2.48 µM | 18% | 79.1 µM | – | potent and relatively selective PYL5 agonists
19 | N#Cc1ccc(CS(=O)(=O)NC(=O)C2(c3cccc(C#N)c3)CC2)cc1 [Compound 50] | – | – | – | – | – | – | 8.39 µM | 36% | 2.43 µM | 67% | 2.52 µM | 0.39 µM | 7% | > 50 µM | > 50 µM | potent and relatively selective PYL5 agonists
20 | N#Cc1ccc(CS(=O)(=O)NC(=O)C2(c3ccc(F)cc3)CCCCC2)cc1 [Compound 51] | – | – | – | – | – | – | 1.11 µM | 16% | > 50 µM | 93% | 5.33 µM | > 50 µM | 97% | 4.46 µM | – | –
